Data as given in patent publication EP0729957A1, “PYRIDINE COMPOUND AND MEDICINAL USE THEREOF” (YOSHITOMI PHARMACEUTICAL INDUSTRIES, LTD., priority 1993, dated 1995).
Counter-ions that a name gives are not always drawn. Like-named read-outs stand apart in the source and are kept apart here.

Legend:
[1] = system: gastric acid secretion; assay: Action on gastric acid secretion of rats subjected to gastroperfusion (histamine-induced); format: in vivo; conditions: 3 mg/kg i.v., 5 minutes before histamine hydrochloride (1 mg/kg i.v.); urethane-anesthetized Wistar rats
Experimental: Experimental Example 2: Action on gastric acid secretion of rats subjected to gastroperfusion
The experiment was done according to the method of Ghosh et al, Br. J. Pharmacol. 13, p 54 (1958). Wistar rats were fasted for 20 hours and anesthetized with urethane (1.5 g/kg, subcutaneous). A polyethylene tube for injection and discharge for gastroperfusion was attached to the rats. Gastroperfusion was performed using physiological saline (37°C) at a speed of 7 ml/min and the perfusate was recovered at 10-min intervals. Histamine hydrochloride (1 mg/kg) was intravenously administered at 1-hr intervals to induce secretion of gastric acid. A test solution containing the test compound was intravenously administered 5 minutes before the histamine hydrochloride administration. The acidity of the gastric acid was titrated up to pH 7.0 with an automatic titrator and percent suppression of gastric acid secretion by the test compound was determined.

[2] = system: Helicobacter pylori; assay: Antibacterial activity (in vitro) against Helicobacter pylori, agar dilution MIC; format: cell-based; conditions: clinical isolates (18 strains), agar plate, 37°C, 8% CO2, 3-4 days; for MIC50: minimum concentration necessary for inhibiting growth by 50%; for MIC90: minimum concentration necessary for inhibiting growth by 90%
[3] = Helicobacter pylori, read-out: MIC50
[4] = Helicobacter pylori, read-out: MIC90

Compound	Suppression (%) [1] [%]	MIC50 [2, 3] [µg/mL]	MIC90 [2, 4] [µg/mL]	further results
2-((3-methyl-4-(2-(2-methoxpolyethoxy)ethylthio)-2-pyridyl)methylsulfinyl)-1H-benzimidazole [Example 25]	100			
2-((3-methyl-4-(2-(2-methoxypolyethoxy)ethylthio)-2-pyridyl)methylthio)-1H-benzimidazole·hydrochloride [Example 22]				MIC50 [2]: 0.025 µg/mL; MIC90 [2]: 0.025 µg/mL
2-((3-methyl-4-(2-methoxypolyethoxy)-2-pyridyl) methylsulfinyl)-1H-benzimidazole [Example 26]	50			
COCCOCCSc1ccnc(CSc2nc3ccccc3[nH]2)c1C [Example 17, 2-((3-methyl-4-(2-(2-methoxyethoxy)ethylthio)-2-pyridyl)methylthio)-1H-benzimidazole·hydrochloride]		0.025	0.05	
COCCOCCOCCSc1ccnc(CSc2nc3ccccc3[nH]2)c1C [Example 21, 2-((3-methyl-4-(2-(2-(2-methoxyethoxy)ethoxy)ethylthio)-2-pyridyl)methylthio)-1H-benzimidazole·hydrochloride]		0.012	0.025	
